Reference: patent US11084795B2, “CFTR regulators and methods of use thereof” (The Regents of the University of California, priority 2015, dated 2021)
“Also recorded” adds a separate entry of the source.

Assays:
TMEM16A = TMEM16A activity in FRT cells expressing YFP and TMEM16A; format: cell-based; conditions: 1c at 10 μM
loperamide-treated mice = assay: Loperamide-induced mouse model of constipation; conditions: 1c orally 1 h prior to loperamide, 3-h stool
[1] = test system: calcium-activated chloride channels in HT-29 cells; assay: CaCC activity in HT-29 cells expressing YFP; format: cell-based; conditions: 1c at 10 μM
cellular cAMP = assay: GloSensor cAMP assay in FRT cells; format: cell-based, rat; conditions: 1c at 10 μM
Protocol: Intracellular cAMP activity was measured using a GloSensor luminescence assay (Promega Corp., Madison, Wisconson, USA). FRT null cells were stably transfected with the pGloSensor cAMP plasmid and plated onto white 96-well microplates and grown to confluence. Cells were washed three times with PBS and incubated with 5 μM CFTRact-J027 for 10 min in the absence and presence of 100 nM forskolin. cAMP was assayed according to the manufacturer's instructions.
Intracellular cAMP activity was measured using a GloSensor luminescence assay (Promega Corp., Madison, Wis., USA). FRT cells stably transfected with the pGloSensor cAMP plasmid (Promega Corp.) were cultured in white 96-well microplates (Corning Costar) overnight. Cells were then washed three times with PBS and incubated with 5 μM test compound for 10 min in the absence and presence of 100 nM forskolin.
cAMP assay. Intracellular cAMP activity was measured using a GloSensor luminescence assay (Promega Corp., Madison, Wisconson, USA). FRT null cells were stably transfected with the pGloSensor cAMP plasmid and plated onto white 96-well microplates and grown to confluence. […]
cAMP and cytotoxicity assays. Intracellular cAMP activity was measured using a GloSensor luminescence assay (Promega Corp., Madison, Wis., USA). […]

cytoplasmic calcium = assay: Cytoplasmic calcium (Fluo-4) in FRT cells; format: cell-based, rat; conditions: 1c at 10 μM; ATP as calcium agonist
Protocol: FIGS. 23A-23D. In vitro characterization of compound 1c. FIG. 23A. Cellular cAMP in FRT cells in response to incubation for 10 min with […] 1c without or with 90 nM forskolin (fsk). Positive controls included fsk (100 nM and 20 pM) and fsk+IBMX (20 pM+100 pM) (mean±S.E.M., n=4). FIG. 23B. Cytoplasmic calcium measured by Fluo-4 fluorescence. FRT cells were pretreated for 5 min with 10 pM 1c (or control), with 100 pM ATP added as a calcium agonist as indicated. FIG. 23C. […] FIG. 23D.

human wildtype CFTR [2] = target: T1, human wildtype CFTR (Homo sapiens, UniProt P13569); assay: Short-circuit current (Isc) in FRT cells expressing human wild-type CFTR; conditions: read-out: EC50 for CFTR activation; FRT cells, wild-type CFTR, short-circuit current
T1 sequence (P13569 whole entry): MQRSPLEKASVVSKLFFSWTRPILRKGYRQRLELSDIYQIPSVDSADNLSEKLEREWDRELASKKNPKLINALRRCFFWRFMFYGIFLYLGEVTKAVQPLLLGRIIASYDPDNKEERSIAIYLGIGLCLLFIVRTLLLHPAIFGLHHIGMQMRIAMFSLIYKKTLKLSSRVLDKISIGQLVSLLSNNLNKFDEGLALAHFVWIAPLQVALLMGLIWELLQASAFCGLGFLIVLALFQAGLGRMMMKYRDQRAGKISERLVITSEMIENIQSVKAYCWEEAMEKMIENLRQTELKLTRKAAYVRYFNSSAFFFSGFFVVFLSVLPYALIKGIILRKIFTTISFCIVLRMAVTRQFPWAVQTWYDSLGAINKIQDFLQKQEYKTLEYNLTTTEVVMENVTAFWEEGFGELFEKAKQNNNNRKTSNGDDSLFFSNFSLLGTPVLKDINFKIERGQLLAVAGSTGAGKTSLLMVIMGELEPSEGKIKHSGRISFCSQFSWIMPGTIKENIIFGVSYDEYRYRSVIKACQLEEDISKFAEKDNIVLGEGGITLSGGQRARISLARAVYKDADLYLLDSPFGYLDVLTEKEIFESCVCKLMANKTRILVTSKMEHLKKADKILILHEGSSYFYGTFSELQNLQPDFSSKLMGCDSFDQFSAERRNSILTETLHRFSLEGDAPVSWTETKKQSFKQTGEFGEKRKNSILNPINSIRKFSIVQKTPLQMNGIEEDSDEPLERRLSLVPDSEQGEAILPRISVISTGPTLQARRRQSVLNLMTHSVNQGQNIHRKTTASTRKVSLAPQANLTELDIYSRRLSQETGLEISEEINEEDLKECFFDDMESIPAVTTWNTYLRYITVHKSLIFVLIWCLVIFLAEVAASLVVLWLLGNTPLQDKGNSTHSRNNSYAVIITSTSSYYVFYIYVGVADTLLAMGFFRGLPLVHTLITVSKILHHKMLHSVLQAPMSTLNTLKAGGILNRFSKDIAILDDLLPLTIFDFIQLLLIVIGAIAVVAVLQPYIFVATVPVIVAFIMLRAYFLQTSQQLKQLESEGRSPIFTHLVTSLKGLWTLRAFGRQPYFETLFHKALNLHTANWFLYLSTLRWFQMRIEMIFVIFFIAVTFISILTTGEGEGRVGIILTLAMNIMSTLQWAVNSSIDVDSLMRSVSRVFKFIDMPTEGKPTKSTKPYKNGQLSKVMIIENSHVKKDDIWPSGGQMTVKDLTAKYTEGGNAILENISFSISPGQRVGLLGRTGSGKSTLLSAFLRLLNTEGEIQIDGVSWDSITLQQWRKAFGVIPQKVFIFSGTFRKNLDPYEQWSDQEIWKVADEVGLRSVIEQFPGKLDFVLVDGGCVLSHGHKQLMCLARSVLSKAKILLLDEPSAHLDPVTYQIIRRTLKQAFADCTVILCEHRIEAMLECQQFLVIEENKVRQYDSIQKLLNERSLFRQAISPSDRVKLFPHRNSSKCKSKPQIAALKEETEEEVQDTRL

human wildtype CFTR [3] = target: T1, human wildtype CFTR; assay: Fluorescence plate reader assay of iodide influx in FRT cells co-expressing CFTR and YFP halide sensor
[4] = In vitro metabolic stability in mouse liver microsomes; format: in vitro ADME; conditions: mouse hepatic microsomes, NADPH
Protocol: (§1) CFTRact-J027 (5 μM) was incubated for specified times at 37° C. with mouse liver microsomes (1 mg protein/ml; Sigma-Aldrich) in potassium phosphate buffer (100 mM) containing 1 mM NADPH, as described. The mixture was then chilled on ice, and 0.5 ml of ice-cold ethyl acetate was added. Samples were centrifuged for 15 min at 3000 rpm, the supernatant evaporated to dryness, and the residue was dissolved in 100 μL mobile phase (acetonitrile:water, 3:1) for LC/MS and assayed as described above.
as §1, with “In vitro metabolic stability. CFTRact-J027” for “CFTRact-J027”
In vitro metabolic stability. Test compound (at 5 μM) was incubated for specified times at 37° C. with mouse liver microsomes (1 mg protein/ml; Sigma-Aldrich, St. Louis, Mo.) in potassium phosphate buffer containing 1 mM NADPH, as described. Following ethyl acetate extraction, non-metabolized parent compound was assayed by LC/MS.

O=c1c(-c2cccc([N+](=O)[O-])c2)nc2ccccc2n1Cc1ccccc1 [Compound 1c, 1-Benzyl-3-(3-nitrophenyl)quinoxalin-2(1H)-one]
activation or inhibition of TMEM16A (TMEM16A): no activation (iodide addition) or inhibition (iodide+ATP addition); also recorded: neither inhibited nor activated | stool weight, pellet number and hydration (loperamide-treated mice): fully normalized stool weight, pellet number and hydration | activation or inhibition of calcium-activated chloride channels in HT-29 cells [1]: no activation (iodide addition) or inhibition (iodide+ATP addition); also recorded: neither inhibited nor activated | effect on cellular cAMP level (cellular cAMP): did not affect the cellular cAMP level | cytoplasmic calcium (cytoplasmic calcium): nor did it elevate cytoplasmic calcium or inhibit the ATP-stimulated elevation in cytoplasmic calcium | EC50 (human wildtype CFTR [2]): 21 nM | increased potency compared to 4 (human wildtype CFTR [3]; plate reader assay): ~10 fold | EC50 (human wildtype CFTR [3]; read-out: EC50, variation in the 3-aryl ring, plate reader assay): 9 nM | EC50 (human wildtype CFTR [3]; synthesized compounds, full dose-response study, 125 nM forskolin): 9 nM | compound metabolized at 60 min [4]: < 40%
